The source made the active and inactive calls. The rule behind the calls is not given here.
Each molecule was assayed on NCI-H460 (assay: Potency index, ratio of CA-4 IC50 to compound IC50 for human H460 cells). Details: not given.
Format: functional

SMILES	Ratio IC50
CNCc1cccn1-c1nc(-c2ccc(F)cc2)cc(-c2cc(OC)c(OC)c(OC)c2)c1C#N	1.3 - 15

These molecules were tested on A549 (assay: Induction of microtubule depolymerization in human A549 cells assessed as scattered short microtubule fragment formation in cytoplasm at 30 nM after 24 hrs by DAPI staining based immunofluorescence microscopic method). Details: not given.
Format: cell-based

SMILES	Activity
CNCc1cccn1-c1nc(-c2ccc(F)cc2)cc(-c2cc(OC)c(OC)c(OC)c2)c1C#N	Active
COc1ccc(/C=C\c2cc(OC)c(OC)c(OC)c2)cc1O [COMBRETASTATIN A4]	Active

The molecules below were run on A549 (assay: cells). Details: Homo sapiens, A549, 72 h.
Description: Antiproliferative activity against human A549 cells after 72 hrs by MTT assay

IC50 [µM]	SMILES
0.17	COc1cc(-c2cc(-c3ccc(F)cc3)nc(-n3cccc3CN(C)C)c2C#N)cc(OC)c1OC
8.26	COc1cc(-c2cc(-c3ccc(F)cc3)nc(-n3cccc3CNC(C)C)c2C#N)cc(OC)c1OC
11	COc1cc(-c2cc(-c3ccc(F)cc3F)nc(-n3cccc3CN3CCOCC3)c2C#N)cc(OC)c1OC
4.55	COc1ccc(-c2cc(-c3ccc(F)cc3)nc(-n3cccc3CN3CCN(C)CC3)c2C#N)c(OC)c1OC
10.7	COc1cc(-c2cc(-c3ccc(F)cc3F)nc(-n3cccc3CN(C)C)c2C#N)cc(OC)c1OC
0.03	CNCc1cccn1-c1nc(-c2ccc(F)cc2)cc(-c2cc(OC)c(OC)c(OC)c2)c1C#N
44.1	COc1cc(-c2cc(-c3ccc(F)cc3)nc(-n3cccc3)c2C#N)cc(OC)c1OC
4.12	CCNCc1cccn1-c1nc(-c2ccc(F)cc2F)cc(-c2cc(OC)c(OC)c(OC)c2)c1C#N
14.4	CNCc1cccn1-c1nc(-c2ccc(F)cc2)cc(-c2ccc(OC)c(OC)c2OC)c1C#N

SMILES	IC50 [µM]
COc1cc([C@H]2C(C#N)=C(N)Oc3c2ccc(N)c3N)cc(Br)c1OC [CROLIBULIN]	0.39
COc1ccc(/C=C\c2cc(OC)c(OC)c(OC)c2)cc1O [COMBRETASTATIN A4]	0.45

Each molecule was assayed on A549 (assay: Potency index, ratio of crolibulin IC50 to compound IC50 for human A549 cells). Details: not given.
Format: functional

SMILES	Ratio IC50
CNCc1cccn1-c1nc(-c2ccc(F)cc2)cc(-c2cc(OC)c(OC)c(OC)c2)c1C#N	6.9 - 13

What follows are molecules tested on MKN-45 (assay: cells). Details: Homo sapiens, MKN-45, 72 h.
Description: Antiproliferative activity against human MKN45 cells after 72 hrs by MTT assay

IC50 [µM]	SMILES
10.4	COc1cc(-c2cc(-c3ccc(F)cc3)nc(-n3cccc3CN(C)C)c2C#N)cc(OC)c1OC
38.5	COc1cc(-c2cc(-c3ccc(F)cc3)nc(-n3cccc3CNC(C)C)c2C#N)cc(OC)c1OC
39.7	COc1cc(-c2cc(-c3ccc(F)cc3F)nc(-n3cccc3CN3CCOCC3)c2C#N)cc(OC)c1OC
10.1	COc1ccc(-c2cc(-c3ccc(F)cc3)nc(-n3cccc3CN3CCN(C)CC3)c2C#N)c(OC)c1OC
7.28	COc1cc(-c2cc(-c3ccc(F)cc3F)nc(-n3cccc3CN(C)C)c2C#N)cc(OC)c1OC
2.22	CNCc1cccn1-c1nc(-c2ccc(F)cc2)cc(-c2cc(OC)c(OC)c(OC)c2)c1C#N
58.5	COc1cc(-c2cc(-c3ccc(F)cc3)nc(-n3cccc3)c2C#N)cc(OC)c1OC
13.2	CCNCc1cccn1-c1nc(-c2ccc(F)cc2F)cc(-c2cc(OC)c(OC)c(OC)c2)c1C#N
38.3	CNCc1cccn1-c1nc(-c2ccc(F)cc2)cc(-c2ccc(OC)c(OC)c2OC)c1C#N

SMILES	IC50 [µM]
COc1cc([C@H]2C(C#N)=C(N)Oc3c2ccc(N)c3N)cc(Br)c1OC [CROLIBULIN]	0.17
COc1ccc(/C=C\c2cc(OC)c(OC)c(OC)c2)cc1O [COMBRETASTATIN A4]	0.21

These molecules were tested on HT-29 (assay: Potency index, ratio of crolibulin IC50 to compound IC50 for human HT-29 cells). Details: not given.
Format: functional

SMILES	Ratio IC50
CNCc1cccn1-c1nc(-c2ccc(F)cc2)cc(-c2cc(OC)c(OC)c(OC)c2)c1C#N	6.9 - 13

The molecules below were run on SMMC-7721 (assay: Antiproliferative activity against human SMMC7721 cells after 72 hrs by MTT assay). Details: SMMC-7721, 72 h.
Format: functional, cell-based

IC50 [µM]	SMILES
20.9	COc1cc(-c2cc(-c3ccc(F)cc3)nc(-n3cccc3CN(C)C)c2C#N)cc(OC)c1OC
34.9	COc1cc(-c2cc(-c3ccc(F)cc3)nc(-n3cccc3CNC(C)C)c2C#N)cc(OC)c1OC
40.8	COc1cc(-c2cc(-c3ccc(F)cc3F)nc(-n3cccc3CN3CCOCC3)c2C#N)cc(OC)c1OC
18.2	COc1ccc(-c2cc(-c3ccc(F)cc3)nc(-n3cccc3CN3CCN(C)CC3)c2C#N)c(OC)c1OC
11.7	COc1cc(-c2cc(-c3ccc(F)cc3F)nc(-n3cccc3CN(C)C)c2C#N)cc(OC)c1OC
2.95	CNCc1cccn1-c1nc(-c2ccc(F)cc2)cc(-c2cc(OC)c(OC)c(OC)c2)c1C#N
61.1	COc1cc(-c2cc(-c3ccc(F)cc3)nc(-n3cccc3)c2C#N)cc(OC)c1OC
4.2	CCNCc1cccn1-c1nc(-c2ccc(F)cc2F)cc(-c2cc(OC)c(OC)c(OC)c2)c1C#N
12.1	CNCc1cccn1-c1nc(-c2ccc(F)cc2)cc(-c2ccc(OC)c(OC)c2OC)c1C#N

SMILES	IC50 [µM]
COc1ccc(/C=C\c2cc(OC)c(OC)c(OC)c2)cc1O [COMBRETASTATIN A4]	1.72

The molecules below were run on A549 (assay: Potency index, ratio of CA-4 IC50 to compound IC50 for human A549 cells). Details: not given.
Format: functional

SMILES	Ratio IC50
CNCc1cccn1-c1nc(-c2ccc(F)cc2)cc(-c2cc(OC)c(OC)c(OC)c2)c1C#N	1.3 - 15

What follows are molecules tested on HT-29 (assay: cells). Details: Homo sapiens, HT-29, 72 h.

IC50 [µM]	SMILES
0.1	COc1cc(-c2cc(-c3ccc(F)cc3)nc(-n3cccc3CN(C)C)c2C#N)cc(OC)c1OC
0.1	COc1cc(-c2cc(-c3ccc(F)cc3)nc(-n3cccc3CNC(C)C)c2C#N)cc(OC)c1OC
6.34	COc1cc(-c2cc(-c3ccc(F)cc3F)nc(-n3cccc3CN3CCOCC3)c2C#N)cc(OC)c1OC
0.06	COc1ccc(-c2cc(-c3ccc(F)cc3)nc(-n3cccc3CN3CCN(C)CC3)c2C#N)c(OC)c1OC
2.51	COc1cc(-c2cc(-c3ccc(F)cc3F)nc(-n3cccc3CN(C)C)c2C#N)cc(OC)c1OC
0.08	CNCc1cccn1-c1nc(-c2ccc(F)cc2)cc(-c2cc(OC)c(OC)c(OC)c2)c1C#N
9.34	COc1cc(-c2cc(-c3ccc(F)cc3)nc(-n3cccc3)c2C#N)cc(OC)c1OC
3.3	CCNCc1cccn1-c1nc(-c2ccc(F)cc2F)cc(-c2cc(OC)c(OC)c(OC)c2)c1C#N
0.06	CNCc1cccn1-c1nc(-c2ccc(F)cc2)cc(-c2ccc(OC)c(OC)c2OC)c1C#N

SMILES	IC50 [µM]
COc1cc([C@H]2C(C#N)=C(N)Oc3c2ccc(N)c3N)cc(Br)c1OC [CROLIBULIN]	0.55
COc1ccc(/C=C\c2cc(OC)c(OC)c(OC)c2)cc1O [COMBRETASTATIN A4]	0.06

Each molecule was assayed on NCI-H460 (assay: Antiproliferative activity against human H460 cells after 72 hrs by MTT assay). Details: NCI-H460, 72 h.
Format: functional, cell-based

IC50 [µM]	SMILES
0.31	COc1cc(-c2cc(-c3ccc(F)cc3)nc(-n3cccc3CN(C)C)c2C#N)cc(OC)c1OC
0.24	COc1cc(-c2cc(-c3ccc(F)cc3)nc(-n3cccc3CNC(C)C)c2C#N)cc(OC)c1OC
12.5	COc1cc(-c2cc(-c3ccc(F)cc3F)nc(-n3cccc3CN3CCOCC3)c2C#N)cc(OC)c1OC
0.11	COc1ccc(-c2cc(-c3ccc(F)cc3)nc(-n3cccc3CN3CCN(C)CC3)c2C#N)c(OC)c1OC
6.18	COc1cc(-c2cc(-c3ccc(F)cc3F)nc(-n3cccc3CN(C)C)c2C#N)cc(OC)c1OC
0.06	CNCc1cccn1-c1nc(-c2ccc(F)cc2)cc(-c2cc(OC)c(OC)c(OC)c2)c1C#N
21.3	COc1cc(-c2cc(-c3ccc(F)cc3)nc(-n3cccc3)c2C#N)cc(OC)c1OC
2.88	CCNCc1cccn1-c1nc(-c2ccc(F)cc2F)cc(-c2cc(OC)c(OC)c(OC)c2)c1C#N
0.26	CNCc1cccn1-c1nc(-c2ccc(F)cc2)cc(-c2ccc(OC)c(OC)c2OC)c1C#N

SMILES	IC50 [µM]
COc1cc([C@H]2C(C#N)=C(N)Oc3c2ccc(N)c3N)cc(Br)c1OC [CROLIBULIN]	0.03
COc1ccc(/C=C\c2cc(OC)c(OC)c(OC)c2)cc1O [COMBRETASTATIN A4]	0.08
